Results from patent US8679803B2, “Glucose conversion to ethanol via yeast cultures and bicarbonate ions” (Church & Dwight Co., Inc., priority 2007, dated 2014).
Where two headings read alike, the source gives them in different places.

Test system: Saccharomyces cerevisiae (Ethanol Red)
Conditions: yeast 2.4 g/L, glucose concentration at 10%
Experimental: Various concentrations of yeast were added to glucose based liquid media with and without NaHCO3 and the fermentation process monitored for glucose consumption and ethanol production.
The fermentation media consisted of 25 gm of glucose and 1 ml of urea (45%) in 250 ml of water. The pH of the system was adjusted to 4.5 with 1 M H2SO4. The temperature of incubation was about 32° C., and the tests were conducted for 72 hours. The tests compared fermentation systems with and without sodium bicarbonate (NaHCO3). NaHCO3 was added to final concentrations of 200 ppm or 500 ppm in the test vessels. […] In some vessels the pH was readjusted to 4.5. Yeasts (Saccharomyces cerevisiae (Ethanol Red) diluted 1 to 5 in water, were added to the various test vessels at 0.5, 2, 3, 4 and 5 ml. Yeasts at 3 ml in the vessel corresponds to 2.4 g/L. The fermentation media vessels were monitored for glucose utilization and ethanol production via HPLC measurement at 2, 4, 6, 24, 48 and 72 hours.

`O=C([O-])O.[Na+]` [SBC, sodium bicarbonate] was tested, and the “Ethanol (% after 48 hours)” value (SBC 200 ppm) was 4.8% and the “Ethanol (% after 48 hours)” value (SBC 500 ppm) was 4.8%.
